Measured values: US12458605B2, “Lipid nanoparticle” (National University Corporation Hokkaido University, priority 2020, dated 2025)

Experiments:
[1] = Average particle size and PDI by dynamic light scattering (Zetasizer Nano ZS); type: physicochemical
Method: (§1) The average particle size (number-average value) and PDI in PBS(−) and zeta potential in 10 mM HEPES buffer solution (pH 7.4) of lipid nanoparticles were measured using “Zetasizer Nano ZS ZEN3600”, an analyzer utilizing dynamic light scattering (manufactured by Malvern).

[2] = Zeta potential in 10 mM HEPES buffer (pH 7.4); type: physicochemical
Method: as §1

[3] = pKa of lipid nanoparticles by TNS (section II); type: physicochemical; settings: F7siRNA-loaded LNP; compared with LNP of straight-chain CL4H6 or CL15H6 (FIG. 1)
Method: The pKa of lipid nanoparticles was measured using p-toluidino-2-naphthalenesulfonic acid (TNS). First, TNS (final concentration: 0.75 μM) and lipid nanoparticles (final concentration: […]) were mixed in buffer solution adjusted to each pH. The fluorescence intensity of the prepared mixture was measured with a microplate reader. The highest and lowest values among the measured values were taken as 100% and 0% charge rates respectively, and the pH indicating 50% charge rate was calculated as pKa.

[4] = siRNA/mRNA encapsulation rate by Ribogreen reagent (section IV); type: physicochemical; settings: for % siRNA encapsulation: F7siRNA-loaded LNP, 50:10:38.5:1.5, N/P ratio 6; for % mRNA encapsulation: FlucmRNA-loaded LNP, 50:10:38.5:1.5
Method in brief: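 LNPs diluted in TE buffer to 8 μg/mL nucleic acid for surface RNA, or to 1.2 μg/mL with 1% Triton X-100 for total RNA. RiboGreen fluorescence (ex 485/em 528 nm) quantified against a Triton-containing standard curve (0-2.5 μg/mL). Encapsulation % = (total − surface)/total × 100.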

spleen = assay: In vivo Fluc activity of FlucmRNA-loaded LNP by in vivo imaging, spleen; settings: Balb/c mice, FlucmRNA-loaded LNP i.v. 0.1 mg mRNA/kg, 6 hours
Method in brief: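 Female Balb/c mice, 7 weeks old, received LNP i.v. at 0.1 mg mRNA/kg. At 6 h, luciferin was given via tail vein at 1.5 mg per mouse, and liver and spleen luminescence was imaged as Avg Radiance [p/s/cm2/sr] near 560 nm.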

F7 = assay: In vivo F7 knockdown, plasma F7 enzyme activity (BIOPHEN FVII), Balb/c mice; settings: i.v. 0.025 mg siRNA/kg, plasma at 24 hours
Method in brief: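 Female Balb/c mice, 5 weeks old, received F7 siRNA lipid nanoparticles i.v. at 0.025 mg siRNA/kg; plasma F7 activity measured chromogenically (BIOPHEN FVII) 24 h later. Values are % of untreated mice, also expressed as a ratio to MC3-containing nanoparticles set at 1.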

[5] = Storage stability of FlucmRNA-loaded LNP at −80, 5, 25 and 40° C.; type: physicochemical; settings: for period for which quality remained good, −80° C.: maximum storage period 1 week; for period for which quality remained good, 5° C. / period for which quality remained good, 25° C. / period for which quality remained good, 40° C. (weeks): maximum storage period 5 weeks
Method in brief: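 FlucmRNA-loaded LNPs held at −80, 5, 25 or 40° C; at each time point size, PDI and encapsulation measured. Quality deemed maintained while size stays within ±20 nm of preparation day, PDI ≤0.2 and encapsulation ≥80%; value is the period meeting all three.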

[6] = NlucmRNA-loaded LNP, 60:10:40:1
[7] = NlucmRNA-loaded LNP, lipid:DSPC:cholesterol:PEG-DMG 60:10:40:1
[8] = pFluc-loaded LNP, 50:10:40:1.5, N/P ratio 6
[9] = pFluc-loaded LNP, 50:10:40:1.5, N/P ratio 9

| Compound | PdI [1, 6] | ζ-Average (nm) [1, 7] | ζ-Average (nm) [1, 8] | ζ-Average (nm) [1, 9] | PdI ([1]; pFluc-loaded LNP, N/P ratio 6) | PdI ([1]; pFluc-loaded LNP, N/P ratio 9) | ζ-potential (mV) [2, 6] | ζ-potential (mV) ([2]; pFluc-loaded LNP, N/P ratio 6) | ζ-potential (mV) ([2]; pFluc-loaded LNP, N/P ratio 9) | pKa of lipid nanoparticle, compared [3] | % siRNA encapsulation [4] | % mRNA encapsulation [4] | Fluc Activity in spleen (spleen) | F7 enzyme activity (Ratio using MC3 as 1) (F7; relative plasma F7 activity of MC3 LNP as 1) | period for which quality remained good, −80° C. [5] | period for which quality remained good, 5° C. [5] | period for which quality remained good, 25° C. [5] | period for which quality remained good, 40° C. (weeks) [5] | F7 enzyme activity (%) (F7; untreated mice as 100%) |
| --- | --- | --- | --- | --- | --- | --- | --- | --- | --- | --- | --- | --- | --- | --- | --- | --- | --- | --- | --- |
| CCCCCCCCC(CCCCCC)C(=O)OCCCCCCC(O)(CCCCCCOC(=O)C(CCCCCC)CCCCCCCC)CCCCOC(=O)C1CCN(C)CC1 (stereo not drawn) [CL15F6] | 0.162 | 92.52 nm | 109.4 nm | 105.7 ± 8.6 nm | 0.07 | 0.13 ± 0.02 | −2.16 mV | −2.02 mV | −1.2 ± 0.4 mV | lower pKa | 100.5% | 99.69% | 5.76E+06 Avg Radiance [p/s/cm2/sr] | 1.52 | 1 week | 5 weeks | 5 weeks | 5 weeks | – |
| CCCN(CCC)CCCCC(O)(CCCCCCOC(=O)C(CCC(C)CC(C)(C)C)C(C)CC(C)(C)C)CCCCCCOC(=O)C(CCC(C)CC(C)(C)C)C(C)CC(C)(C)C (stereo not drawn) [CL4G6, 7-(4-(dipropylamino)butyl)-7-hydroxytridecan-1,13-diyl bis(2-(4.4-dimethylpentan-2-yl)-5,7,7-trimethyloctanoate)] | 0.13 | 109.6 nm | 74.48 nm | 90.6 ± 7 nm | 0.11 | 0.19 ± 0.05 | −1.76 mV | −2.46 mV | −1.3 ± 0.7 mV | lower pKa | 100.1% | 99.8% | 2.08E+06 Avg Radiance [p/s/cm2/sr] | – | 1 week | 5 weeks | 5 weeks | 5 weeks | 7.6% |
